Measured values as given in patent US10597388B2, “Pyridazinone herbicides” (FMC CORPORATION, priority 2014, dated 2020).

How the values were obtained:
Assay in all cases: Test E greenhouse herbicide test, pre- and postemergence
Assay type in all cases: in vivo
Settings in all cases: Preemergence
[1] = system: arrowleaf sida (Sida rhombifolia)
Method in brief: (§1)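 Compounds in a non-phytotoxic solvent mixture with surfactant were applied preemergence to seeds in silt loam soil and postemergence to 2-18 cm plants (1- to 4-leaf stage) in peat-based medium. After 14 to 21 d in a greenhouse, injury was rated visually against untreated controls on a 0 (no effect) to 100 (complete control) scale.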

[2] = system: barnyardgrass (Echinochloa crus-galli)
Method in brief: as §1

[3] = system: sandbur (southem sandbur, Cenchrus echinatus)
Method in brief: as §1

[4] = system: corn (Zea mays)
Method in brief: as §1

[5] = system: pigweed, palmer (palmer pigweed, Amaranthus palmeri)
Method in brief: as §1

[6] = system: momingglory (Ipomoea coccinea)
Method in brief: as §1

[7] = system: horseweed (Conyza canadensis)
Method in brief: as §1

[8] = system: velvetleaf (Abutilon theophrasti)
Method in brief: as §1

[9] = system: foxtail, giant (giant foxtail, Setaria faberii)
Method in brief: as §1

[10] = system: nightshade (eastern black nightshade, Solanum ptycanthum)
Method in brief: as §1

[11] = system: lambsquarters (Chenopodium album)
Method in brief: as §1

[12] = system: goosegrass (Eleusine indica)
Method in brief: as §1

[13] = system: surinam grass (Brachiaria decumbens)
Method in brief: as §1

[14] = system: dayflower (Virginia (VA) dayflower, Commelina virginica)
Method in brief: as §1

[15] = system: crabgrass, large (large crabgrass, Digitaria sanguinalis)
Method in brief: as §1

[16] = system: panicum, fall (fall panicum, Panicum dichotomiflorum)
Method in brief: as §1

[17] = system: ragweed (common ragweed, Ambrosia elatior)
Method in brief: as §1

[18] = 62 g ai/ha, scale 0 to 100 (0 no effect, 100 complete control)
[19] = 31 g ai/ha, scale 0 to 100, 0 no effect, 100 complete control
[20] = 125 g ai/ha, visual, scale 0 no effect to 100 complete control
[21] = 250 g ai/ha, visual, scale 0 no effect to 100 complete control
[22] = 125 g ai/ha, scale 0 to 100 (0 no effect, 100 complete control)

SMILES: CCOC(=O)Oc1c(C)nn(C)c(=O)c1-c1c(CC)ccc2ccccc12 [Compound 37]
- Plant response rating, Arrowleaf Sida [1, 18]: 85
- Plant response rating, Arrowleaf Sida [1, 19]: 70
- Plant response rating, Arrowleaf Sida [1, 20]: 90
- Plant response rating, Arrowleaf Sida [1, 21]: 98
- Plant response rating, Barnyardgrass [2, 18]: 0
- Plant response rating, Barnyardgrass [2, 19]: 0
- Plant response rating, Barnyardgrass [2, 20]: 0
- Plant response rating, Barnyardgrass [2, 21]: 30
- Plant response rating, Sandbur [3, 18]: 35
- Plant response rating, Sandbur [3, 22]: 50
- Plant response rating, Sandbur [3, 19]: 20
- Plant response rating, Sandbur [3, 21]: 65
- Plant response rating, Corn [4, 18]: 0
- Plant response rating, Corn [4, 19]: 0
- Plant response rating, Corn [4, 20]: 0
- Plant response rating, Corn [4, 21]: 0
- Plant response rating, Pigweed, Palmer [5, 18]: 90
- Plant response rating, Pigweed, Palmer [5, 22]: 100
- Plant response rating, Pigweed, Palmer [5, 19]: 0
- Plant response rating, Pigweed, Palmer [5, 21]: 100
- Plant response rating, Morningglory [6, 18]: 40
- Plant response rating, Morningglory [6, 22]: 50
- Plant response rating, Morningglory [6, 19]: 15
- Plant response rating, Morningglory [6, 21]: 65
- Plant response rating, Horseweed [7, 18]: 100
- Plant response rating, Horseweed [7, 19]: 100
- Plant response rating, Horseweed [7, 20]: 100
- Plant response rating, Horseweed [7, 21]: 100
- Plant response rating, Velvetleaf [8, 18]: 50
- Plant response rating, Velvetleaf [8, 22]: 70
- Plant response rating, Velvetleaf [8, 19]: 30
- Plant response rating, Velvetleaf [8, 21]: 100
- Plant response rating, Foxtail, Giant [9, 18]: 70
- Plant response rating, Foxtail, Giant [9, 19]: 65
- Plant response rating, Foxtail, Giant [9, 20]: 80
- Plant response rating, Foxtail, Giant [9, 21]: 90
- Plant response rating, Nightshade [10, 18]: 80
- Plant response rating, Nightshade [10, 22]: 98
- Plant response rating, Nightshade [10, 19]: 90
- Plant response rating, Nightshade [10, 21]: 98
- Plant response rating, Lambsquarters [11, 18]: 100
- Plant response rating, Lambsquarters [11, 19]: 100
- Plant response rating, Lambsquarters [11, 20]: 98
- Plant response rating, Lambsquarters [11, 21]: 100
- Plant response rating, Goosegrass [12, 18]: 35
- Plant response rating, Goosegrass [12, 19]: 35
- Plant response rating, Goosegrass [12, 20]: 75
- Plant response rating, Goosegrass [12, 21]: 80
- Plant response rating, Surinam Grass [13, 18]: 75
- Plant response rating, Surinam Grass [13, 22]: 75
- Plant response rating, Surinam Grass [13, 19]: 50
- Plant response rating, Surinam Grass [13, 21]: 90
- Plant response rating, Dayflower, VA [14, 18]: 5
- Plant response rating, Dayflower, VA [14, 19]: 0
- Plant response rating, Dayflower, VA [14, 20]: 40
- Plant response rating, Dayflower, VA [14, 21]: 60
- Plant response rating, Crabgrass, Large [15, 18]: 75
- Plant response rating, Crabgrass, Large [15, 19]: 50
- Plant response rating, Crabgrass, Large [15, 20]: 80
- Plant response rating, Crabgrass, Large [15, 21]: 90
- Plant response rating, Panicum, Fall [16, 18]: 100
- Plant response rating, Panicum, Fall [16, 22]: 100
- Plant response rating, Panicum, Fall [16, 19]: 90
- Plant response rating, Panicum, Fall [16, 21]: 100
- Plant response rating, Ragweed [17, 18]: 90
- Plant response rating, Ragweed [17, 22]: 95
- Plant response rating, Ragweed [17, 19]: 50
- Plant response rating, Ragweed [17, 21]: 98
